# Experimental data from PMC2810339, “Allosteric Regulation of HIV-1 Reverse Transcriptase by ATP for Nucleotide Selection” (PLoS ONE, 2010).
# What was measured:
# Type in all cases: biochemical, HIV-1
# [1] = tested on: multi-NRTI-resistant RT (ERT-mt6), purified p51/p66 heterodimer; test: RNA-dependent DNA polymerase activity, dTTP incorporation into poly (rA)·p(dT)12-18, steady-state kinetics; settings: for fold increase in IC50 of AZTTP compared to AZTTP without the compound: in the presence of 5 mM of the indicated compound; for fold increase in Ki^NRTI value compared to without ATP: at 3 mM of ATP
# Protocol: (§1) RNA-dependent DNA polymerase activity was measured using [α-^32P]dTTP and poly(rA)/poly(dT)12-18 as described previously. […] These experiments were performed in duplicate and repeated two to six times.
# (§2) The averages of the experimental data were fit by a nonlinear regression method using the program Igor Pro (WaveMetrics, USA). The kinetics parameters were determined by the Michaelis-Menten equation: [drawing 1] (1) where [S] is the substrate concentration; Km^app is the apparent Michaelis-Menten constant; and Vmax^app is the apparent maximal rate attained when the enzyme active sites are saturated by substrate.
# (§3) Using this model, the enzyme kinetic parameters were calculated using Equations 2–5.
# (§4) Vmax^app and Km^app are defined as [drawing 2] (2) and [drawing 3] (3) respectively, where Km is the Michaelis-Menten constant; [E] is the enzyme concentration; [I] is the inhibitor concentration; Ki and Ki′ are the inhibition constants for the enzyme and the complex of the enzyme with substrate; and kcat^app is the apparent turnover number: [drawing 4] (4) where kcat is the turnover number.
# (§5) The kcat^app and Km^app that can be derived from the model (Figure 2C) are [drawing 5] (5) and [drawing 6] (6) where Ki^ATP is the dissociation constant of ATP; Ki^AZTTP is the dissociation constant of AZTTP; [I^ATP] is the ATP concentration; and [I^AZTTP] is the AZTTP concentration.
# [2] = tested on: NRTI-sensitive RT (93JP-NH1), purified p51/p66 heterodimer; test: as above; settings: for fold increase in Ki^NRTI value compared to without ATP: at 3 mM of ATP
# Protocol: as §1, §2, §3, §4, §5
# [3] = tested on: D113A/N mutants of ERT-mt6 RT; test: RNA-dependent DNA polymerase activity of site-directed RT mutants from ERT-mt6; settings: D113A/N versus ERT-mt6 RT; 5 mM ATP (Figure S4C)
# Protocol: The purified RTs were dissolved in the RT stock buffer (50 mM Tris-HCl pH 7.5, 75 mM KCl, 5 mM MgCl2, 2 mM DTT, 0.05% NP40, and 50% glycerol)[32], [33] and kept at −30°C until use. RNA-dependent DNA polymerase activity was measured using [α-^32P]dTTP and poly(rA)/poly(dT)12-18 as described previously. For the RT reaction in the presence of ATP, RT activities were measured in 100 µl of RT reaction cocktail consisting of 50 mM Tris-HCl pH 7.5, 75 mM KCl, 5 mM MgCl2, 2 mM DTT, 0.05% NP40, and 50% glycerol containing RT (1–10 nM), dTTP (0.2–18 µM), and ATP (0–4 mM). For the RT reaction in the presence of ATP and NRTI, RT activities were measured in 100 µl of the RT reaction cocktail containing RT (1–10 nM), dTTP (0.2–18 µM), ATP (0–5 mM), and AZTTP or d4TTP (0–1 µM). These experiments were performed in duplicate and repeated two to six times. […]
# Supplementary file pone.0008867.s004.tif: Figure S4 Data on RT mutants from the ERT-mt6 RT. […] RNA-dependent DNA polymerase activity of the purified RTs (20 nM) was measured using a [α-^32P]dTTP and poly (rA)⋅p(dT)12-18 system. […] RNA-dependent DNA polymerase activity of the purified mutant RTs was measured using various concentrations of [α-^32P]dTTP and poly (rA)⋅p(dT)12-18 in the presence of ATP. […]
# [4] = 0-4 mM ATP, Lineweaver-Burk double-reciprocal plots
# [5] = ATP binding to RT-template-primer complex (RT complex 1)
# [6] = ATP binding to RT-template-primer-dTTP complex (RT complex 2)
# [7] = dTTP incorporation, absence of ATP
molecule,measurement,setting,value
"Nc1ncnc2c1ncn2[C@@H]1O[C@H](COP(=O)(O)OP(=O)(O)NP(=O)(O)O)[C@@H](O)[C@H]1O [AMP-PNP, Adenosine 5′-(β, γ-imido) triphosphate]",fold increase in IC50 of AZTTP compared to AZTTP without the compound,[1],approximately 150 fold
Nc1ncnc2c1ncn2[C@@H]1O[C@H](COP(=O)(O)OP(=O)(O)OP(=O)(O)O)[C@@H](O)[C@H]1O [ATP],mode of inhibition of dTTP incorporation,[2]; [4],mixed noncompetitive inhibition
same,Ki,[2]; [5],2900 ± 1300 µM
same,Ki′^ATP,[2]; [6],1200 ± 500 µM
same,mode of inhibition of dTTP incorporation,[1]; [4],mixed noncompetitive inhibition
same,Ki,[1]; [5],2800 ± 1300 µM
same,Ki′^ATP,[1]; [6],1100 ± 400 µM
same,fold increase in IC50 of AZTTP compared to AZTTP without the compound,[1],approximately 350 fold
"Cc1cn([C@H]2C[C@H](N=[N+]=[N-])[C@@H](COP(=O)(O)OP(=O)(O)OP(=O)(O)O)O2)c(=O)[nH]c1=O [AZTTP, 3′-Azido 3′-deoxythymidine 5′-triphosphate]",fold reduction in the IC50 of AZTTP,[3],4- to 5 fold
same,fold increase in Ki^NRTI value compared to without ATP,[2],about 6.8 fold
same,fold increase in Ki^NRTI value compared to without ATP,[1],about 30 fold
"Cc1cn([C@H]2C=C[C@@H](COP(=O)(O)OP(=O)(O)OP(=O)(O)O)O2)c(=O)[nH]c1=O [d4TTP, 3′-deoxy-2′, and 3′-didehydrothymidine 5′-triphosphate]",fold increase in Ki^NRTI value compared to without ATP,[2],~0.6 fold
same,fold increase in Ki^NRTI value compared to without ATP,[1],~8.5 fold
Cc1cn([C@H]2C[C@H](O)[C@@H](COP(=O)(O)OP(=O)(O)OP(=O)(O)O)O2)c(=O)[nH]c1=O [dTTP],kcat,[2]; [7],1.04 ± 0.01 s⁻¹
same,Km,"[2]; substrate dTTP, absence of ATP",4 ± 0.1 µM
same,kcat,[1]; [7],0.49 ± 0.01 s⁻¹
same,Km,"[1]; substrate dTTP, absence of ATP",13.8 ± 0.5 µM
NaPO4,fold increase in IC50 of AZTTP compared to AZTTP without the compound,[2]; in the presence of 5 mM of the indicated compound,little effect
same,fold increase in IC50 of AZTTP compared to AZTTP without the compound,[1],little effect
